Experimental data: the supplement of paper PMC6045584
± gives the standard deviation of the averaged measurements.

Key:
CABOZANTINIB = compound: COc1cc2nccc(Oc3ccc(NC(=O)C4(C(=O)Nc5ccc(F)cc5)CC4)cc3)c2cc1OC [CABOZANTINIB]; experiment: surviving fraction relative to DMSO-only wells; higher = less growth inhibition; settings: exposure time: 5 days
How it was run: (§1)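 Tumour cell lines were seeded in log phase at 250–500 cells per well into 384-well plates. Starting 24 hours later, inhibitors were present continuously for five days at 0.5, 1, 5, 10, 50, 100, 500 and 1000 nM. Surviving fraction, from CellTiter-Glo luminescence, is normalised to the median of DMSO-only wells. Three screens per line were required, with replicate Pearson r >0.7 and median Z' >0.3 for a line to be kept.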

[1] = compound: C[C@H](CN(C)C)Oc1nc(Nc2cc3cccc(Cl)c3cn2)cnc1C#N; experiment: as above; settings: exposure time: 5 days
How it was run: as §1

Test System | surviving fraction (CABOZANTINIB; 0.5 nM) | surviving fraction (CABOZANTINIB; 1 nM) | surviving fraction (CABOZANTINIB; 5 nM) | surviving fraction (CABOZANTINIB; 10 nM) | surviving fraction (CABOZANTINIB; 50 nM) | surviving fraction (CABOZANTINIB; 100 nM) | surviving fraction (CABOZANTINIB; 500 nM) | surviving fraction (CABOZANTINIB; 1000 nM) | surviving fraction ([1]; 0.5 nM) | surviving fraction ([1]; 1 nM) | surviving fraction ([1]; 5 nM) | surviving fraction ([1]; 10 nM) | surviving fraction ([1]; 50 nM) | surviving fraction ([1]; 100 nM) | surviving fraction ([1]; 500 nM) | surviving fraction ([1]; 1000 nM)
MG63 BONE | 0.966 ± 0.019 | 1.02 ± 0.042 | 1.05 ± 0.021 | 1.03 ± 0.032 | 1.03 ± 0.019 | 0.946 ± 0.037 | 0.724 ± 0.011 | 0.696 ± 0.031 | 1.03 ± 0.042 | 1.05 ± 0.035 | 1.05 ± 0.037 | 1.06 ± 0.025 | 1.11 ± 0.031 | 1.12 ± 0.047 | 1.05 ± 0.051 | 0.889 ± 0.045
HOSMNG BONE | 0.961 ± 0.061 | 0.984 ± 0.053 | 0.885 ± 0.036 | 0.913 ± 0.1 | 0.833 ± 0.038 | 0.839 ± 0.018 | 0.314 ± 0.0085 | 0.274 ± 0.011 | 0.943 ± 0.14 | 0.937 ± 0.064 | 0.984 ± 0.072 | 0.964 ± 0.047 | 1.02 ± 0.072 | 1.05 ± 0.079 | 0.983 ± 0.096 | 0.0657 ± 0.0067
C33A CERVIX | 0.753 ± 0.12 | 0.696 ± 0.036 | 0.941 ± 0.021 | 0.885 ± 0.076 | 0.862 ± 0.071 | 0.919 ± 0.019 | 0.702 ± 0.0072 | 0.676 ± 0.068 | 0.856 ± 0.057 | 0.979 ± 0.11 | 0.903 ± 0.041 | 0.994 ± 0.094 | 0.97 ± 0.074 | 0.937 ± 0.14 | 0.524 ± 0.04 | 0.814 ± 0.054
BT20 BREAST | 1.02 ± 0.047 | 1.09 ± 0.097 | 1.05 ± 0.069 | 1.2 ± 0.08 | 1.11 ± 0.012 | 1.19 ± 0.11 | 1.19 ± 0.1 | 1.17 ± 0.18 | 1.14 ± 0.095 | 1.15 ± 0.081 | 1.22 ± 0.083 | 1.14 ± 0.072 | 1.19 ± 0.093 | 1.31 ± 0.072 | 1.35 ± 0.079 | 1.21 ± 0.093
MDAMB231 BREAST | 0.853 ± 0.013 | 0.9576 ± 0.0047 | 0.969 ± 0.0068 | 0.978 ± 0.024 | 1.01 ± 0.018 | 1.005 ± 0.0054 | 0.908 ± 0.03 | 0.849 ± 0.019 | 0.9579 ± 0.0095 | 0.9571 ± 0.0043 | 0.93 ± 0.076 | 0.959 ± 0.024 | 0.9788 ± 0.0062 | 0.961 ± 0.02 | 0.743 ± 0.029 | 0.492 ± 0.0092
SG27 HEADNECK | 1.02 ± 0.036 | 1.06 ± 0.021 | 0.971 ± 0.054 | 0.996 ± 0.1 | 1.14 ± 0.079 | 1.03 ± 0.13 | 0.975 ± 0.14 | 0.9483 ± 0.007 | 1.14 ± 0.17 | 0.995 ± 0.085 | 1.11 ± 0.12 | 0.997 ± 0.04 | 1.1 ± 0.028 | 1.03 ± 0.065 | 1.16 ± 0.062 | 1.15 ± 0.097
SYO1 SYNOVIAL | 0.92 ± 0.027 | 0.938 ± 0.042 | 0.929 ± 0.037 | 0.859 ± 0.02 | 0.807 ± 0.022 | 0.818 ± 0.044 | 0.721 ± 0.041 | 0.694 ± 0.031 | 0.955 ± 0.038 | 0.963 ± 0.015 | 0.969 ± 0.017 | 0.941 ± 0.023 | 0.97 ± 0.026 | 0.835 ± 0.015 | 0.34 ± 0.0094 | 0.197 ± 0.014
HUO3N1 BONE | 1.05 ± 0.034 | 1.05 ± 0.066 | 1.02 ± 0.025 | 0.953 ± 0.0036 | 0.916 ± 0.014 | 0.861 ± 0.021 | 0.742 ± 0.07 | 0.666 ± 0.008 | 1.11 ± 0.059 | 1.05 ± 0.032 | 1.07 ± 0.023 | 1.07 ± 0.072 | 1.13 ± 0.071 | 0.982 ± 0.031 | 0.7257 ± 0.0065 | 0.486 ± 0.025
H23 LUNG | 0.962 ± 0.052 | 0.931 ± 0.021 | 0.974 ± 0.022 | 0.924 ± 0.032 | 0.945 ± 0.043 | 0.936 ± 0.053 | 0.937 ± 0.066 | 0.925 ± 0.028 | 1 ± 0.058 | 0.99 ± 0.033 | 1 ± 0.064 | 0.989 ± 0.024 | 1.06 ± 0.082 | 1.02 ± 0.038 | 1 ± 0.092 | 0.919 ± 0.079
ASKA SYNOVIAL | 1.09 ± 0.049 | 1.1 ± 0.062 | 1.13 ± 0.11 | 1.18 ± 0.029 | 1.08 ± 0.04 | 1.2 ± 0.03 | 1.1 ± 0.1 | 1.03 ± 0.029 | 1.05 ± 0.055 | 1.13 ± 0.083 | 1.11 ± 0.087 | 1.06 ± 0.082 | 0.994 ± 0.061 | 0.852 ± 0.041 | 0.432 ± 0.032 | 0.438 ± 0.0075
PCI30 HEADNECK | 0.86 ± 0.039 | 0.864 ± 0.05 | 0.954 ± 0.066 | 1.07 ± 0.048 | 1 ± 0.019 | 1.03 ± 0.057 | 0.841 ± 0.036 | 0.84 ± 0.15 | 0.99 ± 0.044 | 0.999 ± 0.019 | 1.06 ± 0.059 | 1.06 ± 0.11 | 0.9137 ± 0.0042 | 0.827 ± 0.079 | 0.337 ± 0.021 | 0.322 ± 0.017
T47D BREAST | 0.969 ± 0.016 | 0.988 ± 0.028 | 1.02 ± 0.038 | 1.04 ± 0.075 | 1.059 ± 0.0083 | 1.07 ± 0.021 | 1.07 ± 0.034 | 1.03 ± 0.022 | 1.02 ± 0.043 | 1.06 ± 0.044 | 1.04 ± 0.027 | 1.03 ± 0.032 | 1.1 ± 0.046 | 1.14 ± 0.029 | 0.919 ± 0.063 | 0.766 ± 0.024
COLO320DM LARGE INTESTINE | 1.08 ± 0.12 | 1.07 ± 0.13 | 1.04 ± 0.13 | 1.11 ± 0.08 | 1.18 ± 0.069 | 1.23 ± 0.093 | 1.16 ± 0.049 | 1.04 ± 0.099 | 1.04 ± 0.17 | 1.07 ± 0.09 | 1.01 ± 0.069 | 1.13 ± 0.068 | 1.06 ± 0.066 | 0.896 ± 0.084 | 0.235 ± 0.027 | 0.154 ± 0.027
HCC1806 BREAST | 0.863 ± 0.075 | 1.06 ± 0.057 | 1.092 ± 0.0075 | 1.06 ± 0.073 | 1.19 ± 0.078 | 1.08 ± 0.12 | 1.08 ± 0.021 | 1.09 ± 0.13 | 1.14 ± 0.095 | 1.09 ± 0.062 | 1.25 ± 0.2 | 1.13 ± 0.055 | 0.991 ± 0.068 | 0.633 ± 0.069 | 0.0587 ± 0.008 | 0.0547 ± 0.0029
HSSYII SYNOVIAL | 0.909 ± 0.022 | 0.927 ± 0.067 | 0.935 ± 0.048 | 0.923 ± 0.025 | 0.963 ± 0.071 | 0.888 ± 0.014 | 0.787 ± 0.0083 | 0.671 ± 0.043 | 0.9423 ± 0.0023 | 0.918 ± 0.0061 | 0.956 ± 0.042 | 0.94 ± 0.066 | 0.884 ± 0.039 | 0.74 ± 0.015 | 0.139 ± 0.0076 | 0.077 ± 0.0027
MFM223 BREAST | 1.12 ± 0.16 | 1.04 ± 0.048 | 1.12 ± 0.094 | 1.06 ± 0.086 | 1.16 ± 0.17 | 1.22 ± 0.073 | 1.05 ± 0.029 | 0.824 ± 0.098 | 1.27 ± 0.17 | 1.09 ± 0.057 | 1.15 ± 0.14 | 1.09 ± 0.094 | 1.08 ± 0.093 | 1.14 ± 0.18 | 0.8 ± 0.048 | 0.526 ± 0.17
MDAMB468 BREAST | 1.04 ± 0.089 | 1.11 ± 0.044 | 1.05 ± 0.057 | 1.09 ± 0.017 | 1.13 ± 0.067 | 1.15 ± 0.07 | 1.05 ± 0.086 | 1.07 ± 0.092 | 0.976 ± 0.074 | 1.01 ± 0.043 | 1.08 ± 0.035 | 1.071 ± 0.0092 | 1.03 ± 0.036 | 1.03 ± 0.041 | 0.54 ± 0.039 | 0.223 ± 0.017
HCC78 LUNG | 0.826 ± 0.047 | 0.884 ± 0.047 | 0.991 ± 0.044 | 0.608 ± 0.16 | 0.315 ± 0.049 | 0.281 ± 0.088 | 0.185 ± 0.023 | 0.221 ± 0.058 | 0.677 ± 0.09 | 0.908 ± 0.11 | 0.832 ± 0.17 | 0.984 ± 0.022 | 0.832 ± 0.15 | 0.919 ± 0.12 | 0.317 ± 0.1 | 0.131 ± 0.041
NCIH441 LUNG | 1.07 ± 0.042 | 1.02 ± 0.038 | 1.07 ± 0.036 | 0.963 ± 0.056 | 1.07 ± 0.028 | 1.06 ± 0.021 | 1.01 ± 0.031 | 0.845 ± 0.019 | 1.1 ± 0.07 | 1.01 ± 0.04 | 1.1 ± 0.035 | 1.19 ± 0.053 | 1.17 ± 0.026 | 1.16 ± 0.11 | 0.86 ± 0.051 | 0.531 ± 0.031
CADOES1 SOFT TISSUE | 0.946 ± 0.15 | 0.895 ± 0.081 | 0.994 ± 0.054 | 0.914 ± 0.15 | 0.858 ± 0.16 | 0.877 ± 0.034 | 0.976 ± 0.056 | 0.878 ± 0.17 | 0.789 ± 0.054 | 0.94 ± 0.018 | 0.867 ± 0.069 | 0.894 ± 0.031 | 0.814 ± 0.14 | 0.726 ± 0.056 | 0.294 ± 0.048 | 0.148 ± 0.015
